The target of the assay is T1, IGF-1R Ba/F3 (Homo sapiens, UniProt P08069).
T1 construct: fused on or other part: TEL- (or BCR-) IGF-1R in Ba/F3: the kinase part holds the site
In words: Ba/F3 Cell Viability Inhibition Assay (IGF-1R Ba/F3). The conditions noted are these: Tel-TK transformed Ba/F3 cells, 48 hours, Britelite luminescence. It is filed as cell-based, murine. An excerpt:
The IC50 of a drug may be determined constructing a dose-response curve and examining the effect of different concentrations of antagonist on reversing agonist activity. IC50 values may be calculated for a given antagonist by determining the concentration needed to inhibit half of the maximum biological response of the agonist. To calculate IC50 values, a series of dose-response data (e.g., drug concentrations x1, x2, . . . , xn and growth inhibition y1, y2, . . . , yn, the values of y are in the range of 0-1) is generated. IC50 values may be determined by a computer-aided system using the formula: y=D+((A−D)/(1+10^(x-log(IC50)B) • where A is the ratio of growth inhibition between lowest drug concentration and control; B is the slope of sigmoidal curvel; and D is the ratio of growth inhibition between highest drug concentration and control.
Ba/F3 is a murine IL-3-dependent pro-B lymphoma cell line. Parental Ba/F3 cells are used to generate a panel of sublines whose proliferation and survival is rendered IL-3-independent by stable transduction with individual tyrosine kinases activated by fusion with the amino-terminal portion of TEL (amino acid 1-375) or BCR. In order to generate Ba/F3 cell lines transformed by Tel-Tyrosine Kinase (TK) fusions, parental Ba/F3 cells are infected with a retrovirus harboring each TEL-fusion kinase and subjected to puromycin selection and IL-3 withdrawal to obtain IL-3-independent, transformed Ba/F3 cells.
Each transformed Ba/F3 cells are cultured in RPMI-1640 media (Gibco Cat #11875093, Carlsbad, Calif.) supplemented with 10% FBS (Hyclone Cat #SV30014.03, Logan, Utah), 4.5 g/L glucose (Sigma #G5400, St. Louis, Mo.), 1.5 g/L sodium bicarbonate (Biowhittaker #17-613E, Walkersville, Md.) and Pen/Strep (Gibco #10378-016, Carlsbad, Calif.). Cells are splitted twice weekly.
The potency of test compounds against various Tel-TK transformed Ba/F3 lines is determined as follows. Exponentially growing BaF3 Tel-TK cells are diluted in fresh medium to 75,000 cells/mL and seeded into 384-well plates (3750 cells/well) at 50 μL/well using a μFill liquid dispenser (BioTek, Winooski, Vt., USA). Duplicate plates are run for each cell line. Test and control compounds are serially diluted with DMSO and arrayed in a polypropylene 384-well plate. […] of compound is transferred into the assay plates using a pin-transfer device, and the plates are incubated at 37° C. (5% CO2) for 48 hours. 25 μL Britelite (Perkin Elmer) is added and luminescence is quantified using Analyst GT (Molecular Devices). Custom curve-fitting software is used to produce a logistic fit of percent cell viability as a function of the logarithm of inhibitor concentration. The IC50 is interpolated as the concentration of compound needed to reduce cell viability to 50% of a DMSO control. Parental Ba/F3 cells that are maintained and cultured in presence of IL-3 (1 ng/ml in final) are diluted in fresh medium containing IL-3 (1 ng/ml in final) to 75,000 cells/mL following the same procedure as described above.

T1 sequence (P08069 999-1274 limits assumed): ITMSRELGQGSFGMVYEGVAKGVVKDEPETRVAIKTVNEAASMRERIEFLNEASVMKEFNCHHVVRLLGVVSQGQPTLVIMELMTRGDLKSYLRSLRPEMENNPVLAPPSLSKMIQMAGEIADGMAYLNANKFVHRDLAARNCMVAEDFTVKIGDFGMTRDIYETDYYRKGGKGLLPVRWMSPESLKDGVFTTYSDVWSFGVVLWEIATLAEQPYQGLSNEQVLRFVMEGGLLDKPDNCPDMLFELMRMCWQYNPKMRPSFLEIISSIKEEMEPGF

What is called IC50 is the point on the concentration scale where inhibition reaches its midpoint. Low values mean greater potency in that assay, high ones weaker potency in that assay. `Cc1cc(Nc2nc(Nc3cc(C)c(C4CCN(CCO)CC4)cc3C)ncc2C(F)(F)F)n[nH]1` [Compound 222, 2-(4-(2,5-dimethyl-4-(4-(5-methyl-1H-pyrazol-3-ylamino)-5-(trifluoromethyl)pyrimidin-2-ylamino)phenyl)piperidin-1-yl)ethanol] gave an IC50 of 38 nM.
Consider `Cc1cc(Nc2nc(Nc3cc(C)c(C4CCN(Cc5noc(C(C)C)n5)CC4)cc3F)ncc2Cl)n[nH]1` [Compound 285, 5-chloro-N2-(2-fluoro-4-(1-((5-isopropyl-1,2,4-oxadiazol-3-yl)methyl)piperidin-4-yl)-5-methylphenyl)-N4-(5-methyl-1H-pyrazol-3-yl)pyrimidine-2,4-diamine], for which half-maximal inhibition (IC50) was put at 68 nM. Against the preceding compound, the IC50 is about 1.8-fold higher.
Turning to `Cc1cc(Nc2nc(Nc3cc(Cl)c(C4CCN(CCS(=O)(=O)N5CCC5)CC4)cc3C)ncc2Cl)n[nH]1` [Compound 60, N2-(4-(1-(2-(azetidin-1-ylsulfonyl)ethyl)piperidin-4-yl)-5-chloro-2-methylphenyl)-5-chloro-N4-(5-methyl-1H-pyrazol-3-yl)pyrimidine-2,4-diamine], the half-maximal inhibitory concentration (IC50) turned out to be 11 nM.
With `Cc1cc(Nc2nc(Nc3cc(C)c(C4CCN(CC5(C#N)CC5)CC4)cc3C)ncc2Cl)n[nH]1` [Compound 198, 1-((4-(4-(5-chloro-4-(5-methyl-1H-pyrazol-3-ylamino)pyrimidin-2-ylamino)-2,5-dimethylphenyl)piperidin-1-yl)methyl)cyclopropanecarbonitrile], the 50% inhibitory concentration (IC50) came out at 22 nM.
In the case of `Cc1cc(Nc2nc(Nc3cc(C)c(C4CCN(CCS(=O)(=O)N(C)C)CC4)cc3F)ncc2Cl)n[nH]1` [Compound 58, 2-(4-(4-(5-chloro-4-(5-methyl-1H-pyrazol-3-ylamino)pyrimidin-2-ylamino)-5-fluoro-2-methylphenyl)piperidin-1-yl)-N,N-dimethylethanesulfonamide] it was 36 nM; in that of `Cc1cc(Nc2nc(Nc3cc(C)c(C4CCN(C(=O)c5c(C)noc5C)CC4)cc3F)ncc2Cl)n[nH]1` [Compound 137, (4-(4-(5-chloro-4-(5-methyl-1H-pyrazol-3-ylamino)pyrimidin-2-ylamino)-5-fluoro-2-methylphenyl)piperidin-dimethylisoxazol-4-yl)methanone], 18 nM.
Compound `CCc1cnc(N2CCC(c3cc(F)c(Nc4ncc(Cl)c(Nc5cc(C)[nH]n5)n4)cc3C)CC2)nc1` [Compound 149, 5-Chloro-N2-(4-(1-(5-ethylpyrimidin-2-yl)piperidin-4-yl)-2-fluoro-5-methylphenyl)-N4-(5-methyl-1H-pyrazol-3-yl)pyrimidine-2,4-diamine] had a 50% inhibitory concentration (IC50) of 955 nM.
`Cc1cc(Nc2nc(Nc3cc(C)c(C4CCN(CCS(C)(=O)=O)CC4)cc3F)ncc2Cl)n[nH]1` [Compound 55, 5-Chloro-N2-(2-fluoro-5-methyl-4-(1-(2-(methylsulfonyl)ethyl)piperidin-4-yl)phenyl)-N4-(5-methyl-1H-pyrazol-3-yl)pyrimidine-2,4-diamine] gave a concentration for half-maximal inhibition (IC50) of 24 nM.
`Cc1cc(Nc2nc(Nc3cc(C)c(C4CCN(CCO)CC4)cc3F)ncc2Cl)n[nH]1` [Compound 22, 2-(4-(4-(5-chloro-4-(5-methyl-1H-pyrazol-3-ylamino)pyrimidin-2-ylamino)-5-fluoro-2-methylphenyl)piperidin-1-yl)ethanol]: 59 nM corresponded to half-maximal inhibition (IC50).
Next, `Cc1cc(Nc2nc(Nc3cc(C(F)(F)F)c(N4CCN(C)CC4)cc3C)ncc2Cl)n[nH]1` [Compound 156, 5-chloro-N4-(5-methyl-1H-pyrazol-3-yl)-N2-(2-methyl-4-(4-methylpiperazin-1-yl)-5-(trifluoromethyl)phenyl)pyrimidine-2,4-diamine]: 40 nM.
In turn, `Cc1cc(Nc2nc(Nc3cc(C)c(C4CCCCN4)cc3C)ncc2Cl)n[nH]1` (centres unmarked) [Compound 14, 5-chloro-N2-(2,5-dimethyl-4-(piperidin-2-yl)phenyl)-N4-(5-methyl-1H-pyrazol-3-yl)pyrimidine-2,4-diamine] gave a 50% inhibitory concentration (IC50) of 16 nM.
`Cc1cc(Nc2nc(Nc3cc(C)c(C4CCN(CC(O)C(F)(F)F)CC4)cc3C)ncc2Cl)n[nH]1` (centres unmarked) [Compound 29, 3-(4-(4-(5-chloro-4-(5-methyl-1H-pyrazol-3-ylamino)pyrimidin-2-ylamino)-2,5-dimethylphenyl)piperidin-1-yl)-1,1,1-trifluoropropan-2-ol] had an IC50 of 23 nM.
As for `Cc1cc(Nc2nc(Nc3cc(C)c(C4CCN(Cc5ccnnc5)CC4)cc3C)ncc2Cl)n[nH]1` [Compound 21, 5-chloro-N2-(2,5-dimethyl-4-(1-(pyridazin-4-ylmethyl)piperidin-4-yl)phenyl)-N4-(5-methyl-1H-pyrazol-3-yl)pyrimidine-2,4-diamine], half-maximal inhibition (IC50) was put at 2 nM. This IC50 lies about 12-fold lower than the previous one.
As to `Cc1cc(Nc2nc(Nc3cc(C)c(C4CCN(Cc5c(C)noc5C)CC4)cc3F)ncc2Cl)n[nH]1` [Compound 19, 5-Chloro-N2-(4-(1-((3,5-dimethylisoxazol-4-yl)methyl)piperidin-4-yl)-2-fluoro-5-methylphenyl)-N4-(5-methyl-1H-pyrazol-3-yl)pyrimidine-2,4-diamine], the 50% inhibitory concentration (IC50) stood at 56 nM.
Take `CNC(=O)CN1CCC(c2cc(C)c(Nc3ncc(Cl)c(Nc4cc(C(F)(F)F)[nH]n4)n3)cc2C)CC1` [Compound 220, 2-(4-(4-(5-chloro-4-(5-(trifluoromethyl)-1H-pyrazol-3-ylamino)pyrimidin-2-ylamino)-2,5-dimethylphenyl)piperidin-1-yl)-N-methylacetamide]: the 50% inhibitory concentration (IC50) is 37 nM.
The compound `Cc1cc(Nc2nc(Nc3cc(C)c(C4CCN(CCCS(=O)(=O)N5CCOCC5)CC4)cc3F)ncc2Cl)n[nH]1` [Compound 245, 5-chloro-N2-(2-fluoro-5-methyl-4-(1-(3-(morpholinosulfonyl)propyl)piperidin-4-yl)phenyl)-N4-(5-methyl-1H-pyrazol-3-yl)pyrimidine-2,4-diamine] gave an IC50 of 77 nM.
Compound `Cc1cc(Nc2nc(Nc3cc(C)c(C4CCN(CCC#N)CC4)cc3F)ncc2Cl)n[nH]1` [Compound 200, 3-(4-(4-(5-chloro-4-(5-methyl-1H-pyrazol-3-ylamino)pyrimidin-2-ylamino)-5-fluoro-2-methylphenyl)piperidin-1-yl)propanenitrile] came in with an IC50 of 36 nM.
Take `Cc1cc(Nc2nc(Nc3cc(C)c(C4CCN(C(=O)CN5CCOCC5)CC4)cc3C)ncc2Cl)n[nH]1` [Compound 102, 1-(4-(4-(5-chloro-4-(5-methyl-1H-pyrazol-3-ylamino)pyrimidin-2-ylamino)-2,5-dimethylphenyl)piperidin-1-yl)-2-morpholinoethanone]: the IC50 was 9 nM.
In turn, `Cc1cc(Nc2nc(Nc3cc(C)c(C4CCN(CC(O)C(F)(F)F)CC4)cc3F)ncc2Cl)n[nH]1` (centres unmarked) [Compound 30, 3-(4-(4-(5-chloro-4-(5-methyl-1H-pyrazol-3-ylamino)pyrimidin-2-ylamino)-5-fluoro-2-methylphenyl)piperidin-1-yl)-1,1,1-trifluoropropan-2-ol] returned an IC50 of 71 nM.
`CNC(=O)CN1CCCCC1c1cc(C)c(Nc2ncc(Cl)c(Nc3cc(C)[nH]n3)n2)cc1C` (centres unmarked) [Compound 182, 2-(2-(4-(5-chloro-4-(5-methyl-1H-pyrazol-3-ylamino)pyrimidin-2-ylamino)-2,5-dimethylphenyl)piperidin-1-yl)-N-methylacetamide] registered a half-inhibitory concentration (IC50) of 19 nM.

The values are drawn from patent publication US8859574B2 (IRM LLC, priority 2008, dated 2014).
